Non-standard residues stand in square brackets, D forms with d. Residues, ends and D or L forms follow the SMILES beside them. *: point of attachment. NHPhenethyl = c1ccc(CCN*)cc1; pGlu = O=C1CC[CH](C(=O)O)N1

The molecule `CC(C(=O)O)c1ccc2nc3ccc(S(C)(=O)=O)cn3c(=O)c2c1` (stereo not drawn) showed a melting point of 240 °C.

Molecule `CCOC(=O)C(=CNC1CC1)C(=O)c1cc(F)c(-n2cccc2)cc1F` came in with a melting point of 90 to 92 °C.

`CCNC(=O)C(c1ccccc1)N1CCN(c2ccc(NC(=O)c3ccccc3-c3ccc(C(F)(F)F)cc3)cc2)CC1` (stereo not drawn) gave a melting point of 123 °C.

For `CCCS(=O)(=O)c1sc(C(N)=O)c2c1-c1c(cnn1CC(F)(F)F)CC2`, the melting point was 141 to 142 °C.

Turning to `O=C1c2cc([N+](=O)[O-])ccc2OCCC1Br` (stereo not drawn), the melting point lay in the range of 115 to 118 °C.

`O=C(Cn1c2c(c(=O)n3nc(-c4ccccc4)cc13)CN(C1CCCCC1)C2=O)c1ccccc1` returned a melting point of 164 to 167 °C.

Molecule `Cc1cc(=O)c(OCc2ccccc2)c(CO)o1` showed a melting point of 115 to 116 °C.

In turn, `Clc1ccc2c(-n3cncn3)ccnc2c1` registered a melting point of 169 to 170 °C.

As to `CN(C)CCCNCc1ccc(-c2cc3ncnc(Nc4ccc5[nH]ccc5c4)c3s2)cc1`, the melting point lay within 148 to 160 °C.

Molecule `O=c1ccsn1Cc1ccc2c(c1)CCO2` had a melting point of 100 to 102 °C.

In the case of `Cn1c(C#N)ccc1CC(=O)O`, the melting point was in the range of 125 to 126 °C.

In the case of `Cc1c(C)c2c(c(C)c1OCc1ccccc1)CC[C@@](C)(CO)O2`, the melting point was in the range of 66 to 69.5 °C.

`CCCCNc1nc(N)nc(N)n1` registered a melting point of 167 °C.

Consider `O=C(CC1CC1)N[C@H]1CC[C@H](CCN2CCN(c3nccc4c3OCC4)CC2)CC1`, for which the melting point stood at 198 °C.

On to `CCCc1c(OCc2ccc(Cc3nnn[nH]3)cc2)ccc(C(C)=O)c1O`, for which the melting point lay in the range of 184 to 187 °C.

Molecule `CN(C)C(=O)Oc1ccc(C=O)c(O)c1` returned a melting point of 58 to 60 °C.

Take `CC1(C)OC(=S)Nc2ccc(-c3cc(F)cc(Br)c3)cc21`: the melting point lay in the range of 221 to 222 °C.

As to `CC(C)(C)CN1C(=O)[C@@H](CC=O)O[C@H](c2ccccc2Cl)c2cc(Cl)ccc21` (relative stereo), the melting point lay in the range of 173 to 176 °C.

Molecule `O=C1NCN(c2ccccc2)C12CCN(CC1=Cc3ccccc3CC1)CC2` registered a melting point of 205 to 206 °C.

For the molecule `CCCc1c(C(=O)NCc2ccc3cc(OCC(=O)O)ccc3c2)cnn1-c1ccc(Cl)cc1`, the melting point fell in the range of 203 to 204 °C.

With `COc1ccc(CN(C)CCc2ccc(NC(=O)c3cccc4c(=O)c5cccc(C)c5[nH]c34)c(C)c2)cc1OC`, the melting point was 160 to 161 °C.

As to `CCOC(=O)c1cnc2ccc(CC)cc2c1O`, the melting point was above 260 °C.

In turn, `Clc1ccc2c(c1)-c1nnnn1-c1ccccc1O2` showed a melting point of 209 to 211 °C.

Take `Cn1ccc2ccc(/C=C/CN3CCN(C4c5ccccc5CCc5ncccc54)CC3)cc21` (stereo not drawn): the melting point is 168 to 170 °C.

As for `CC(=NO)C(=O)c1ccc(OCc2cccc(C(F)(F)F)c2)cc1`, the melting point is 137 to 138 °C.

Turning to `C[C@@H](O)CNC(=O)N1CC(c2ccc(F)cc2)C1`, the melting point was in the range of 104 to 105 °C.

On to `COc1ccc2c(c1)C(=O)c1c-2c(N2CCN(C(=O)CCCl)CC2)nc2ccccc12`, for which the melting point is 162 to 163 °C.

`O=C(NCCCCC1N=C(c2ccccc2)OC1=O)OCc1ccccc1` (stereo not drawn) came in with a melting point of 72 to 73 °C.

On to `COc1ccc2oc(Cc3ccccc3)c(CC#N)c2c1`, for which the melting point was 69 to 70 °C.

Molecule `O=C(NC/C=C\COc1cc(CN2CCCCC2)ccn1)c1cn[nH]c1` had a melting point of 121 to 123 °C.

In turn, `CCCCc1ncc(C=C2C(=O)Nc3ccccc32)n1Cc1ccc(C(=O)OCC)cc1` displayed a melting point of 169 to 171 °C.

Regarding `C=CCN1CCC2(CC1)CSC1=C(O2)c2ccccc2C(=O)C1=O`, the melting point fell in the range of 166 to 168 °C.

With `Cc1ccc([N+](=O)[O-])c(C)c1[N+](=O)[O-]`, the melting point was in the range of 81 to 83 °C.

In the case of `C#CC1(O)C(CO)OC(n2ccc(=O)[nH]c2=O)C1O` (stereo not drawn), the melting point was in the range of 226 to 228 °C.

Turning to `Nc1cc(CBr)nn1-c1c(Cl)cc(C(F)(F)F)cc1Cl`, the melting point came out at 220 °C.

On to `CCOC(=O)[C@H](Cc1ccc(O)cc1)NC(=O)OC(C)(C)C`, for which the melting point was in the range of 87 to 88 °C.

On to `Cc1[nH]cnc1CSCCNc1[nH]cc(Cc2ccccc2)c1[N+](=O)[O-]`, for which the melting point lay within 192 to 193 °C.

`OCC1OC(n2cnc3c(SCc4ccc5nc[nH]c5c4)ncnc32)C(O)C1O` (stereo not drawn) displayed a melting point of 196 to 198 °C.

Take `COc1ccc2c(N)c([N+](=O)[O-])sc2c1`: the melting point is above 250 °C.

`Cc1nnn(CC(I)=C(I)I)n1` displayed a melting point of 111 °C.

Take `Cc1nc2cc(OC3SCC(O)C(O)C3O)ccc2s1` (stereo not drawn): the melting point lay in the range of 210 to 211 °C.

Turning to `COCOc1c(OC)cc(C=CC(=O)c2c(OC)cc(OC)c(CC=C(C)C)c2O)cc1OC`, the melting point lay in the range of 128 to 129 °C.

Molecule `CS(=O)(=O)c1ccc(-c2cnn(-c3ccc(F)cc3)c(=O)c2Cc2cccc(F)c2)cc1` yielded a melting point of 176 to 178 °C.

`CC(C)n1nc(-c2nc(C(N)=O)c(N)nc2-c2ccccc2Br)ccc1=O` registered a melting point of 132 to 135 °C.

In turn, `FC(F)(F)c1ccc(-c2cc(Cl)ncn2)cc1` registered a melting point of 227 to 230 °C.

In turn, `ON=Cc1c(-c2ccccc2Br)ccc2c1OCO2` returned a melting point of 168 to 169 °C.

For `CC(C)(C)OC(=O)NCCCCCCC(=O)Nc1ccc(-n2nc(C(F)(F)F)cc2C(F)(F)F)cc1`, the melting point is 86 to 88 °C.

In turn, `NC(=S)C=Cc1ccc(C(F)(F)F)cc1` gave a melting point of 167 to 170 °C.

`CCOC(=O)Cc1ccc(-c2nc(COc3ccc(COc4nn(-c5ccccc5)cc4/C=C/c4nc(CC)sc4C)cc3OC)c(C)o2)cc1` had a melting point of 127 to 128 °C.

In turn, `COC(=O)c1ccc(C=Cc2nc3ccccc3s2)cc1` showed a melting point of 168 to 169 °C.

`COc1c(OCCCC(=O)O)ccc2c1N=C(C=C(O)c1cccnc1)N1CCN=C21` returned a melting point of 257 to 258 °C.

`O=C=Nc1ccc(OC(=O)CCC(=O)Oc2ccc(N=C=O)cc2)cc1` gave a melting point of 193 to 195 °C.

In turn, `CCOC(OCC)c1ncn(CCC(O)(c2ccc(F)cc2F)n2cncn2)n1` (stereo not drawn) registered a melting point of 85 to 87 °C.

Molecule `Cc1cc(C)nc(NC(=O)NS(=O)(=O)c2ccccc2C(=O)O)n1` showed a melting point of 160 °C.

In turn, `CC(C)C(NC(=O)OCCN1CCCC1)C(=O)NC(Cc1ccccc1)C(O)C(Cc1ccccc1)NC(=O)C(NC(=O)OCc1ccccc1)C(C)C` (stereo not drawn) returned a melting point of 143 to 146 °C.

`Cn1cc(-c2ccc3c(c2)C(C)(C)CCC3(C)C)cc1C=CC(=O)O` showed a melting point of 165 to 166 °C.

`Cc1cc(C)nc(-c2cccc(-c3ccccc3)n2)n1` had a melting point of 117 °C.

As for `COC(=O)Cn1ccc2ccc(-c3nccc(-c4ccccc4)n3)cc21`, the melting point is 111 °C.

`COc1cc(Cl)c(Cl)cc1Oc1ccc(Cl)cc1`: the melting point came to 105 °C.

Regarding `CC(C)(C)c1cc(-n2nc3ccc(Cl)cc3n2)c(O)c(C(C)(C)C)c1`, the melting point is 151 to 154 °C.

`CSC(SC)(SC)C(O)c1ccc(-n2cccc2)cc1` (stereo not drawn) had a melting point of 101 to 103 °C.

As for `CCCCc1nc2c(N)nc3ccc(O)cc3c2n1CCCCNS(=O)(=O)c1ccccc1`, the melting point lay in the range of 219 to 223 °C.

The molecule `CCCOc1c(OC)cc(C(CCC(C(=O)O)c2cc(OC)c(OC)c(OC)c2)C(=O)O)cc1SC` (stereo not drawn) returned a melting point of 172 to 174 °C.

Take `Nc1nccc(-c2c(-c3ccccc3)nn3ccccc23)n1`: the melting point is 222 to 223 °C.

Turning to `CC(=O)N(c1ccc(F)cc1Cl)S(=O)(=O)CCl`, the melting point lay within 89 to 92 °C.

`CCOC(=O)C(Sc1ccc(O)cc1)c1ccc(Br)cc1` (stereo not drawn) came in with a melting point of 55.6 °C.

For the molecule `CC(=O)OC1CCC(n2cnc3cc(Cl)c(Cl)cc32)C1OC(C)=O` (stereo not drawn), the melting point lay within 95 to 97 °C.

`C#CC1(Oc2ccc(F)cc2[N+](=O)[O-])CCN(C(=O)OCC)CC1`: the melting point fell in the range of 56 to 68 °C.

The molecule `O=C1Cc2c(ccc3c2OC(CNCc2ccccc2)CC3)N1` (stereo not drawn) returned a melting point of 128 °C.

`CC=CC(=O)N(CCCC(=O)O)C(C)(C)CC(C)(C)C` displayed a melting point of 92 to 93 °C.

As to `CC(=O)OCc1cc(=O)c(Oc2ccc(F)cc2)c(-c2ccc(S(C)(=O)=O)cc2)o1`, the melting point was found to be 180 °C.

`COc1ccc(C=O)c2cc(C#N)oc12` showed a melting point of 170 to 178 °C.

For the molecule `COc1ccc2c(OC)c(C(C)C)cc(Br)c2c1`, the melting point was in the range of 108 to 110 °C.

`Cc1cccc2c1NS(=O)(=O)N(C(C)C)C2=O` gave a melting point of 124 °C.

Molecule `CNC(=O)ON=C1SCS(=O)CS1` (stereo not drawn) returned a melting point of 175 to 177 °C.

`c1ccc(Nc2nc3c(s2)CCc2[nH]ncc2-3)nc1` had a melting point of 297 to 299 °C.

`CCC1=NC(=NOC(=O)NC)SC1(C)CC` (stereo not drawn) returned a melting point of 88 to 90 °C.

As for `CC(=O)OC1CC2(C)C(Sc3ccccc3)=CCC2C2CCC3=CC(=O)C=CC3(C)C12F` (stereo not drawn), the melting point was in the range of 229 to 231 °C.

`Cc1cc(-c2nc3cc(F)cc(N4CCCC4)c3c(=O)[nH]2)cc(C)c1OCCN1CCCC1` registered a melting point of 207 °C.

`Cc1cc2c(cc1C)C(C)(C)N(Cc1ccccc1)C2(C)C` registered a melting point of 98 to 100 °C.

Molecule `OC(CCc1ccccc1)c1cnc2sc3cc(F)ccc3n12` (stereo not drawn) registered a melting point of 195 to 196 °C.

`Cc1ccc(CCN2CCC[C@H](C(C#N)(c3ccccc3)c3ccccc3)C2)cc1` came in with a melting point of 110 to 113 °C.

For the molecule `COc1cc(C(C)C)c(Oc2cnc(N[C@H](C)CO)nc2N)cc1Cl`, the melting point is 111 to 117 °C.

In the case of `CC(=O)NS(=O)(=O)c1ccc(N2CCN(CC[C@@H]3OCCc4ccccc43)CC2)cc1`, the melting point lay in the range of 160 to 161 °C.

`CCOC(=O)c1c(Cl)c2sccc2[nH]c1=O` showed a melting point of 206 °C.

Take `NC(=O)CC(NC(=O)C(CO)NC(=O)CNC(=O)CNC(=O)C1CCC(=O)N1)C(=O)NC(Cc1ccccc1)C(=O)NCCc1ccccc1` (stereo not drawn) ([pGlu]GGSNF-NHPhenethyl; configuration not given here): the melting point lay within 209 to 211 °C.

Turning to `CC(C)c1nc(C(C)(C)C)cc(-c2ccc(F)cc2)c1CO`, the melting point is 112 to 113 °C.

`Cc1oc(-c2ccccc2)nc1COc1ccc(CON=C(C(=O)O)C(C)C)cc1` displayed a melting point of 128 to 129 °C.

The values above are taken from a melting point compilation (Tetko et al.; mined from patent text by program, amines drawn as free bases though some values may be those of a salt).
